These results are taken from patent US11377425B1, “Small molecule modulators of IL-17” (LEO Pharma A/S, priority 2018, dated 2022).

In the assay the target is T1, human IL-17AA (Homo sapiens, UniProt Q16552).
T1 construct: host or cells: HEK (human embryonic kidney) cells
T1 sequence (Q16552 24-155): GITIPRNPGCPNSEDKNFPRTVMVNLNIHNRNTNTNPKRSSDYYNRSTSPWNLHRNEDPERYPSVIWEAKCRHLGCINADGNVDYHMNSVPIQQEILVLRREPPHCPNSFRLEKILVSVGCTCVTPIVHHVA
The experiment in a line: IL-8 release assay in human epithelial keratinocytes adult (HEKa). Format: cell-based. The conditions noted are these: HEKa cells, 3 ng/mL HEK-human IL-17AA + 10 ng/mL human TNFalpha; read-out: Rel EC50 IL-8 release assay. In a few lines:
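IL-8 release, quantified by HTRF and normalized to controls, reports IL-17 signaling in HEKa cells treated with compound plus final 3 ng/mL IL-17AA (HEK-derived) and 10 ng/mL TNF-alpha for 68-72 h; TNF-alpha-only wells set 100% inhibition. Four-parameter logistic fits (r^2>0.9) give relative IC50 and Emax; PrestoBlue flags cytotoxicity.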

For `Cc1n[nH]c(C)c1-c1ccc(NC(=O)[C@@H](NC(=O)c2ccnn2CC(F)F)C2CCCCC2)cc1` [Example 106, N-[(1S)-1-cyclohexyl-2-[4-(3,5-dimethyl-1H-pyrazol-4-yl)anilino]-2-oxo-ethyl]-2-(2,2-difluoroethyl)pyrazole-3-carboxamide], the EC50 (commonly the midpoint of the concentration-response curve) was < 100 nM.
Regarding `CCn1nccc1C(=O)N[C@H](C(=O)Nc1ccc(-c2c(C)n[nH]c2C)cc1)C(C1CC1)C1CC1` [Example 107, N-[(1S)-1-(dicyclopropylmethyl)-2-[4-(3,5-dimethyl-1H-pyrazol-4-yl)anilino]-2-oxo-ethyl]-2-ethyl-pyrazole-3-carboxamide], the EC50 is < 100 nM.
The result for `Cc1n[nH]c(C)c1-c1ccc(NC(=O)[C@@H](NC(=O)c2ccnn2C2CCC2)C2CCCCC2)cc1` [Example 108, 2-cyclobutyl-N-[(1S)-1-cyclohexyl-2-[4-(3,5-dimethyl-1H-pyrazol-4-yl)anilino]-2-oxo-ethyl]pyrazole-3-carboxamide] reads < 100 nM; that for `CC[C@H](C)[C@H](NC(=O)c1ccnn1CC)C(=O)Nc1ccc(-c2c(C)n[nH]c2C)cc1` [Example 109, N-[(1S,25)-1-[[4-(3,5-dimethyl-1H-pyrazol-4-yl)phenyl]carbamoyl]-2-methyl-butyl]-2-ethyl-pyrazole-3-carboxamide], 100 to 1000 nM; that for `CC[C@H](C)[C@H](NC(=O)c1ccnn1C(C)C)C(=O)Nc1ccc(-c2c(C)n[nH]c2C)cc1` [Example 110], 100 to 1000 nM.
As to `Cc1n[nH]c(C)c1-c1ccc(NC(=O)[C@H](NC(=O)c2ccnn2C(C)C)C2CCC3(CC2)CC3)cc1` [Example 111, N-[(1R)-2-[4-(3,5-dimethyl-1H-pyrazol-4-yl)anilino]-2-oxo-1-spiro[2.5]octan-6-yl-ethyl]-2-isopropyl-pyrazole-3-carboxamide], the EC50 was > 1000 nM.
For the molecule `Cc1n[nH]c(C)c1-c1ccc(NC(=O)[C@@H](NC(=O)c2ccnn2C(C)C)C2CCC3(CC2)CC3)cc1` [Example 112, N-[(1S)-2-[4-(3,5-dimethyl-1H-pyrazol-4-yl)anilino]-2-oxo-1-spiro[2.5]octan-6-yl-ethyl]-2-isopropyl-pyrazole-3-carboxamide], the EC50 is < 100 nM.
For `CC[C@@H](C)[C@H](NC(=O)c1ccnn1C)C(=O)Nc1ccc(-c2c(C)n[nH]c2C)cc1` [Example 113], the EC50 was > 1000 nM.
With `Cc1n[nH]c(C)c1-c1ccc(NC(=O)[C@@H](NC(=O)c2ccnn2C2CCC2)C(C2CC2)C2CC2)cc1` [Example 114, 2-cyclobutyl-N-[(1S)-1-(dicyclopropylmethyl)-2-[4-(3,5-dimethyl-1H-pyrazol-4-yl)anilino]-2-oxo-ethyl]pyrazole-3-carboxamide], the EC50 was < 100 nM.
In the case of `Cc1n[nH]c(C)c1-c1ccc(NC(=O)[C@@H](NC(=O)c2ccnn2CC(F)F)C(C2CC2)C2CC2)cc1` [Example 115, N-[(1S)-1-(dicyclopropylmethyl)-2-[4-(3,5-dimethyl-1H-pyrazol-4-yl)anilino]-2-oxo-ethyl]-2-(2,2-difluoroethyl)pyrazole-3-carboxamide] it was < 100 nM.
The result for `Cc1n[nH]c(C)c1-c1ccc(NC(=O)[C@@H](NC(=O)c2ccnn2C2CC2)C(C2CC2)C2CC2)cc1` [Example 116, 2-cyclopropyl-N-[(1S)-1-(dicyclopropylmethyl)-2-[4-(3,5-dimethyl-1H-pyrazol-4-yl)anilino]-2-oxo-ethyl]pyrazole-3-carboxamide] reads < 100 nM.
`Cc1n[nH]c(C)c1-c1ccc(NC(=O)[C@@H](NC(=O)c2ccnn2C)C(C2CC2)C2CC2)cc1` [Example 117, N-[(1S)-1-(dicyclopropylmethyl)-2-[4-(3,5-dimethyl-1H-pyrazol-4-yl)anilino]-2-oxo-ethyl]-2-methyl-pyrazole-3-carboxamide]: the EC50 was < 100 nM.
The result for `CCC(CC)[C@H](NC(=O)c1ccnn1C)C(=O)Nc1ccc(-c2c(C)n[nH]c2C)cc1` [Example 118] reads 100 to 1000 nM.
Consider `Cc1n[nH]c(C)c1-c1ccc(NC(=O)[C@@H](NC(=O)c2ccnn2C(C)CO)C(C2CC2)C2CC2)cc1` (stereo partly drawn) [Example 120], for which the EC50 lay within 100 to 1000 nM.
Take `CCC(CC)[C@H](NC(=O)c1ccnn1C(C)C)C(=O)Nc1ccc(-c2c(C)n[nH]c2C)cc1` [Example 121]: the EC50 was 100 to 1000 nM.
As to `Cc1n[nH]c(C)c1-c1ccc(NC(=O)[C@@H](NC(=O)c2ccnn2CCO)C(C2CCC2)C2CCC2)cc1` [Example 122], the EC50 is < 100 nM.
In the case of `Cc1n[nH]c(C)c1-c1ccc(NC(=O)[C@@H](NC(=O)c2ccnn2C)[C@H]2CC[C@H](C)CC2)cc1` [Example 125, Trans N-[(1S)-2-[4-(3,5-dimethyl-1H-pyrazol-4-yl)anilino]-1-(4-methylcyclohexyl)-2-oxo-ethyl]-2-methyl-pyrazole-3-carboxamide] it was < 100 nM; in that of `CCn1nccc1C(=O)N[C@H](C(=O)Nc1ccc(-c2c(C)n[nH]c2C)cc1)[C@H]1CC[C@H](C)CC1` [Example 126, Trans N-[(1S)-2-[4-(3,5-dimethyl-1H-pyrazol-4-yl)anilino]-1-(4-methylcyclohexyl)-2-oxo-ethyl]-2-ethyl-pyrazole-3-carboxamide], < 100 nM; in that of `Cc1n[nH]c(C)c1-c1ccc(NC(=O)[C@@H](NC(=O)c2ccnn2C(C)C)[C@H]2CC[C@H](C)CC2)cc1` [Example 127, Trans N-[(1S)-2-[4-(3,5-dimethyl-1H-pyrazol-4-yl)anilino]-1-(4-methylcyclohexyl)-2-oxo-ethyl]-2-isopropyl-pyrazole-3-carboxamide], < 100 nM.
Regarding `CCC(C)n1nccc1C(=O)N[C@H](C(=O)Nc1ccc(-c2c(C)n[nH]c2C)cc1)C(C1CC1)C1CC1` (stereo partly drawn) [Example 128, N-[(1S)-1-(dicyclopropylmethyl)-2-[4-(3,5-dimethyl-1H-pyrazol-4-yl)anilino]-2-oxo-ethyl]-2-sec-butyl-pyrazole-3-carboxamide], the EC50 was < 100 nM.
For the molecule `Cc1n[nH]c(C)c1-c1ccc(NC(=O)[C@@H](NC(=O)c2ccnn2CC2CC2)C(C2CC2)C2CC2)cc1` [Example 129, 2-(cyclopropylmethyl)-N-[(1S)-1-(dicyclopropylmethyl)-2-[4-(3,5-dimethyl-1H-pyrazol-4-yl)anilino]-2-oxo-ethyl]pyrazole-3-carboxamide], the EC50 was < 100 nM.
Turning to `Cc1n[nH]c(C)c1-c1ccc(NC(=O)[C@@H](NC(=O)c2ccnn2CCC(F)(F)F)C(C2CC2)C2CC2)cc1` [Example 130, N-[(1S)-1-(dicyclopropylmethyl)-2-[4-(3,5-dimethyl-1H-pyrazol-4-yl)anilino]-2-oxo-ethyl]-2-(3,3,3-trifluoropropyl)pyrazole-3-carboxamide], the EC50 was < 100 nM.
In the case of `Cc1n[nH]c(C)c1-c1ccc(NC(=O)[C@@H](NC(=O)c2ccnn2CCN(C)C)C(C2CC2)C2CC2)cc1` [Example 131, N-[(1S)-1-(dicyclopropylmethyl)-2-[4-(3,5-dimethyl-1H-pyrazol-4-yl)anilino]-2-oxo-ethyl]-2-(2-dimethylaminoethyl) pyrazole-3-carboxamide] it was 100 to 1000 nM; in that of `Cc1n[nH]c(C)c1-c1ccc(NC(=O)[C@@H](NC(=O)c2ccnn2CC(C)C)C(C2CC2)C2CC2)cc1` [Example 132, N-[(1S)-1-(dicyclopropylmethyl)-2-[4-(3,5-dimethyl-1H-pyrazol-4-yl)anilino]-2-oxo-ethyl]-2-isobutyl-pyrazole-3-carboxamide], < 100 nM.
